Data reported in patent publication US5444056A, “Aminoalkoxyphenyl derivatives, process for their preparation and compositions containing them” (Sanofi, priority 1989, dated 1995).
Where a name gives a salt, the structure may show the parent alone.

Key:
[1] = tested on: contractile response to potassium-induced depolarization on isolated rat aorta; experiment: Calcium inhibitory properties: antagonism of contractile response to potassium-induced depolarization on isolated rat aorta; design: species or system rat (male Wistar); conditions: percent of maximal contraction before incubation, 60 min
Source text: It is well established that the depolarization of a smooth muscle membrane by potassium makes the latter permeable to extracellular calcium and induces muscle contraction. Consequently, the measurement of inhibition of the contractile response to depolarization by potassium or the measurement of relaxation of the tonic contraction on potassium depolarization can provide an evaluation of the potency of a compound as an inhibitor of the membrane permeability to Ca^++ ions. The technique used is the following: The aorta is removed from male Wistar rats weighing about 300 g and cut into strips approximately 40 mm long and 3 mm wide. These fragments are placed in a 25 ml isolated organ bath containing modified Krebs-bicarbonate solution (112 mM NaCL; 5 mM KCl; 25 mM NaHCO3; 1 mM KH2 PO4; 1.2 mM MgSO4; 2.5 mM CaCl2; 11.5 mM glucose, made up to 1000 ml with distilled water) maintained at 37° C. and through which a stream of carbon dioxide is passed. The preparation is connected to a force microsensor and the contractile response is recorded after amplification on a recorder. A tension of 2g is applied to the preparation. This latter is maintained in the modified Krebs-bicarbonate solution for 60 minutes, and then contractions are induced by replacing the Krebsbi-carbonate solution by a Krebs-potassium solution (17 mM NaCl; 100 mM KCl; 25 mM NaHCO3; 1 mM KH2 PO4; 1.2 mM MgSO4; 2.5 mM CaCl2; 11.5 mM glucose; made up to 1000 ml with distilled water). When the contractile response of the preparation has become reproducible, a given amount of the compound of the invention is introduced into the bath. Sixty minutes later a new spasm is induced by potassium depolarization. The results obtained on the aorta under investigation are then expressed in percent of the maximal contractional effect before incubation with the test substance. As examples, the following results were obtained, the compounds of formula (1) being in the form of the free base, the hydrochloride, oxalate or fumarate.

[2] = tested on: increase in blood pressure induced by epinephrine (anti-α effect); experiment: Anti-α effect: reduction of epinephrine-induced increase in blood pressure in anesthetized atropinized dog; format: in vivo; design: key: +: for a reduction <50%; ++: for a reduction ≥50%; +++: for an almost complete reduction
Experimental: The aim of this test is to determine the capacity of the compounds of the invention to reduce the increase in blood pressure induced by epinephrine (anti-αeffect) and the acceleration of the heart rate induced by isoprenaline (anti-βeffect) in the dog previously anesthetized with pentobarbital and atropinized. First, are determined for each dog the dose of epinephrine (between 3 and 10 μg/kg) which causes a reproducible increase in arterial blood pressure of about 133.10^2 Pa and the dose of isoprenaline (1 to 2 μg/kg) which causes a reproducible increase in the heart rate of about 70 beats/minute. The doses of epinephrine and isoprenaline thus determined are injected alternatively every ten minutes and after the two consecutive reference responses have been obtained, a quantity of the test compound is administered by the intravenous route. The percentage reduction of the hypertension caused by the test compound in comparison with the reference hypertension previously obtained (about 100 mm Hg) is recorded. In both cases, the results of the reduction in arterial pressure and heart rate are expressed as follows: […]

Row | Compound | % maximal contractional effect ([1]; 10^-8 M, 0.01 µM) | % maximal contractional effect ([1]; 10^-7 M, 0.1 µM) | % maximal contractional effect ([1]; 10^-9 M, 0.001 µM) | further results
1 | CCCCN(CCCC)CCCOc1ccc(S(=O)(=O)c2c(C(C)C)cn3ccccc23)cc1 [B, reference compound] | 61% |  |  | Anti-α effect ([2]; intravenous, 0,5 mg/kg): ++ (for a reduction ≥50%)
2 | COc1cc(OC)c(C(C)C)c(S(=O)(=O)c2ccc(OCCCN(C)CCc3ccc(OC)c(OC)c3)cc2)c1.O=C(O)C(=O)O [Ex.6, 4-[-3(N-methyl N-3,4-dimethoxy-β-phenethylamino)propox]phenyl (2-isopropyl 3,5-dimethoxy phenyl) sulfone oxalate] | 63,4% | 13,1% | 85,7% | 
3 | CCCCc1oc2ccc([N+](=O)[O-])cc2c1S(=O)(=O)c1ccc(OCCCN(C)CCc2ccc(OC)c(OC)c2)cc1 [Ex. 1, 2-n-butyl 3-{4-[3-(N-methyl N-3,4-dimethoxy-β-phenethylamino)propoxy]benzenesulfonyl} 5-nitro benzofuran hydrochloride] |  | 70,1% |  | % maximal contractional effect ([1]; 10^-6 M, 1 µM): 45,4%; Anti-α effect ([2]; intravenous, 3,23 mg/kg): +++
4 | CCCCc1oc2ccc(N)cc2c1S(=O)(=O)c1ccc(OCCCN(C)CCc2ccc(OC)c(OC)c2)cc1 [Ex. 3, 5-amino 3-{4-[3-(N-methyl N-3,4-dimethoxy-β-phenethylamino)propoxy]benzenesulfonyl} 2-n-butyl benzofuran dihydrochloride] |  |  |  | Anti-α effect ([2]; intravenous, 1,31 mg/kg): +++
5 | CCCCc1oc2ccc(NS(C)(=O)=O)cc2c1S(=O)(=O)c1ccc(OCCCN(C)CCc2ccc(OC)c(OC)c2)cc1 [Ex. 4, 3-{4-[3-(N-methyl N-3,4-dimethoxy-β-phenethylamino)propoxy]benzenesulfonyl} 2-n-butyl 5-methane sulfonamido benzofuran hydrogen oxalate] |  | 92,7% |  | % maximal contractional effect ([1]; 10^-6 M, 1 µM): 49,9%
6 | CCCCc1oc2ccc(Cl)cc2c1S(=O)(=O)c1cc(Br)c(OCCCN(C)CCc2ccc(OC)c(OC)c2)c(Br)c1 [Ex. 7, 5-chloro 2-n-butyl 3-{4-[3-(N-methyl N-3,4-dimethoxy-β-phenethylamino)propoxy] 3,5-dibromobenzenesulfonyl}benzofuran hydrogen oxalate] |  | 76,8% |  | % maximal contractional effect ([1]; 10^-6 M, 1 µM): 80,3%
7 | COc1ccc2[nH]c(C)c(Sc3ccc(OCCCN(C)CCc4ccc(OC)c(OC)c4)cc3)c2c1 [Ex. 9, 3-{4-[3-(N-methyl N-3,4-dimethoxy-β-phenethylamino)propoxy]phenylthio} 5-methoxy 2-methyl indole hydrogen oxalate] | 84,4% | 70,4% | 88% | 
8 | COc1ccc(CCN(C)CCCOc2ccc(S(=O)(=O)c3c(C(C)C)n(CCN(C)C)c4ccccc34)cc2)cc1OC [Ex. 11, 3-{4-[3-(N-methyl N-3,4-dimethoxy-β-phenethylamino)propoxy]benzenesulfonyl} 1-dimethylaminoethyl 2-isopropyl indole dioxalate] | 85,9% | 66,7% |  | Anti-α effect ([2]; intravenous, 1,6 mg/kg): ++ (for a reduction ≥50%)
9 | CCN(CC)CCn1c(C(C)C)c(S(=O)(=O)c2ccc(OCCCN(C)CCc3ccc(OC)c(OC)c3)cc2)c2ccccc21 [Ex. 12, 3-{4-[3-(N-methyl N-3,4-dimethoxy-β-phenethylamino)propoxy]benzenesulfonyl} 1-diethylaminoethyl 2-isopropyl indole dioxalate] | 84,5% | 74,9% | 90,4% | 
10 | COc1ccc(CCNCCCOc2ccc(S(=O)(=O)c3c(C(C)C)c(C)n4ccccc34)cc2)cc1OC [Ex. 14, 2-isopropyl 3-methyl 1-{4-[3-(N-3,4-dimethoxy-β-phenethylamino)propoxy]benzenesulfonyl}indolizine hydrogen oxalate] |  |  |  | Anti-α effect ([2]; intravenous, 0,12 mg/kg): +++
11 | COc1ccc(CCN(C)CCCOc2ccc(S(=O)(=O)c3c(C(C)C)n(C)c4cc(C)ccc34)cc2)cc1OC [Ex. 45, 1-methyl 2-isopropyl 3-{4-[3-(N-methyl N-3,4-dimethoxy-β-phenethylamino)propoxy]benzenesulfony} 6-methyl indole hydrogen oxalate] | 75,2% | 15,7% | 83,2% | 
12 | CCCCN(CCCC)CCCOc1ccc(S(=O)(=O)c2c(C(C)C)n(C)c3cc(C)ccc23)cc1.O=C(O)C(=O)O [Ex. 46, 1-methyl 2-isopropyl 3-{4-[3-(di-n-butylamino)propoxy]benzenesulfonyl} 6-methyl indole hydrogen oxalate] | 67,2% | 41,7% | 79,5% | 
13 | CCCCN(CCCC)CCCOc1ccc(S(=O)(=O)c2c(C)nn3c(C)cccc23)cc1 [Ex. 48, 3-{4-[3-(di-n-butylamino)propoxy]benzenesulfonyl} 2,7 dimethyl pyrazolo[1,5-]pyridine hydrogen oxalate] | 77,1% |  | 85,7% | 
14 | Cc1nn2cccc(C)c2c1S(=O)(=O)c1ccc(OCCCN(C)C2CCCc3ccccc32)cc1 (stereo not shown) [Ex. 51, 3-{4-[3-(N-methyl N-1,2,3,4-tetrahydronapth-1-ylamino)propoxy]benzenesulfonyl} 2,4-dimethyl pyrazolo[1,5-a]pyridine hydrogen oxalate] | 67,1% |  | 85% | 
15 | COc1ccc(CCN(C)CCCOc2ccc([S+]([O-])c3c(C(C)C)c4cccc(C)c4n3C)cc2)cc1OC (stereo not drawn) [Ex. 57, (3-isopropyl 1,7-dimethylindol-2-yl)4-[3-(N-methyl N-3,4-dimethoxy-β-phenethylamino)propoxy]phenyl sulfoxide hydrogen oxalate] | 76,4% | 56,9% | 89,9% | 
16 | COc1ccc(CCN(C)CCCOc2ccc(S(=O)(=O)c3c(C(C)C)c4cc(Cl)ccc4n3C)cc2)cc1OC [Ex. 59, 2-{4-[3-(N-methyl N-3,4-dimethoxy-β-phenethylamino)propoxy]benzenesulfonyl} 5-chloro 3-isopropyl 1-methyl indole] | 55,4% | 41,4% | 68,4% | % maximal contractional effect ([1]; 10^-10 M, 0.0001 µM): 81,5%
17 | COc1ccc2c(c1)c(C(C)C)c(S(=O)(=O)c1ccc(OCCCN(C)CCc3ccc(OC)c(OC)c3)cc1)n2CCCN(C)CCc1ccc(OC)c(OC)c1 [Ex. 63, 2-{4-[3-(N-methyl N-3,4-dimethoxy-β-phenethylamino)propoxy]benzenesulfonyl} 1-[3-(N-methyl N-3,4-dimethoxy-β-phenethylamino)propyl] 3-isopropyl 5-methoxy indole oxalate] | 82,8% | 69,7% | 90,8% | 
18 | CCc1nn2cccc(C)c2c1S(=O)(=O)c1ccc(OCCCN(C)CCc2ccc(OC)c(OC)c2)cc1 [Ex. 78, 3-{4-[3-(N-methyl N-3,4-dimethoxy-β-phenethylamino)propoxy]benezenesulfonyl} 2-ethyl 4-methyl pyrazolo[1,5-a]pyridine hydrogen oxalate] | 17,5% |  | 72,9% | % maximal contractional effect ([1]; 10^-10 M, 0.0001 µM): 78,6%
19 | CCc1nn2cc(C)ccc2c1S(=O)(=O)c1ccc(OCCCN(C)CCc2ccc(OC)c(OC)c2)cc1 [Ex. 81, 3-{4-[3-(N-methyl N-3,4-dimethoxy-β-phenethylamino)propoxy]benzenesulfonyl} 2-ethyl 6-methyl pyrazolo[1,5-a]pyridine hydrogen oxalate] | 78,1% |  | 85,3% | % maximal contractional effect ([1]; 10^-10 M, 0.0001 µM): 91,4%
